Source: patent US9937129B2, “Materials and methods for delivering compositions to selected tissues” (The Regents of the University of California, priority 2007, dated 2018)

Tests used:
[1] = cited from earlier work
[2] = Spontaneous adsorption and concentration of bevacizumab in porous SiO2; assay type: physicochemical; conditions: 0.125 mg/mL solution
Source text: The affinity of a porous Si particle for a particular molecule can be controlled with surface chemistry. The surface of oxidized porous Si has a point of zero charge at a pH of around 2, and so it presents a negatively charged surface to most aqueous solutions of interest. At the appropriate pH, porous SiO2 spontaneously adsorbs positively charged proteins such as serum albumin, fibrinogen, protein A, immunoglobulin G (IgG), or horseradish peroxidase, concentrating them in the process. For example, a 0.125 mg/mL solution of the monoclonal antibody bevacizumab (trade name Avastin, an anti-cancer drug) spontaneously concentrates in suitably prepared porous SiO2 by a factor of >100.

[3] = in vivo; cited from earlier work

In the case of bevacizumab [Avastin], the IC50 [1] is given as 0.022 µg/mL, the Therapeutically relevant dose ([1]; intraocular) is given as over 22 ng/mL and the “Concentration factor in suitably prepared porous SiO2” value [2] is given as over 100 factor. The “Vitreous half-life of free drug” value [3] was 120 h.
